# Assay results: ChEMBL document CHEMBL5233255, “Natural and nature-inspired stilbenoids as antiviral agents” (Eur J Med Chem, 2020)
# How the values were obtained:
# [1] = Selectivity index, ratio of TC50 for cytotoxicity against HEK293T cells to EC50 for antiviral activity against HIV-1 infected in HEK293T cells; assay type: toxicity, cell-based; details: human
# [2] = Cytotoxicity against HEK293T cells; assay type: toxicity, cell-based, HEK-293T; details: human, read-out: TC50 (the source's name)
# [3] = test system: Human immunodeficiency virus 1; experiment: Antiviral activity against HIV-1 infected in HEK293T cells; assay type: functional, organism-based; details: Human immunodeficiency virus 1, HEK-293T
# [4] = Selectivity index, ratio of CC50 for cytotoxicity against human TZM-bl cells to EC50 for antiviral activity against HIV-1 Bal (R5) infected in human TZM-bl cells; assay type: toxicity, cell-based; details: read-out: Ratio CC50/EC50
# [5] = Cytotoxicity against human TZM-bl cells by luciferase assay; assay type: toxicity, cell-based
# [6] = test system: Human immunodeficiency virus 1; experiment: Antiviral activity against HIV-1 NL 4-3 (X4) infected in human MT4 cells assessed as inhibition of virus induced cytopathic effect by MTT assay; assay type: functional, organism-based; details: Human immunodeficiency virus 1, NL 4-3 (X4)
# [7] = Selectivity index, ratio of CC50 for cytotoxicity against human TZM-bl cells to EC50 for antiviral activity against HIV-1 NL 4-3 (X4) infected in human TZM-bl cells; assay type: toxicity, cell-based; details: read-out: Ratio CC50/EC50
# [8] = test system: Human immunodeficiency virus 1; experiment: Antiviral activity against HIV-1 NL 4-3 (X4) infected in human TZM-bl cells assessed as inhibition of virus induced cytopathic effect by luciferase based assay; assay type: functional, organism-based; details: Human immunodeficiency virus 1, NL 4-3 (X4)
# [9] = Cytotoxicity against human MT4 cells by MTT assay; assay type: toxicity, cell-based
# [10] = Selectivity index, ratio of CC50 for cytotoxicity against human MT4 cells to EC50 for antiviral activity against HIV-1 NL 4-3 (X4) infected in human MT4 cells; assay type: toxicity, cell-based; details: read-out: Ratio CC50/EC50
# [11] = test system: Human immunodeficiency virus 1; experiment: Antiviral activity against HIV-1 Bal (R5) infected in human TZM-bl cells assessed as inhibition of virus induced cytopathic effect by luciferase based assay; assay type: functional, organism-based; details: Human immunodeficiency virus 1, Bal (R5)
# [12] = test system: Human alphaherpesvirus 2; experiment: Antiviral activity against HSV-2 UW 268 infected in MDCK cells assessed as inhibition of viral replication measured after 24 hrs by plaque reduction assay; assay type: functional, organism-based; details: Human alphaherpesvirus 2, UW 268, MDCK
# [13] = test system: Human alphaherpesvirus 1; experiment: Antiviral activity against HSV-1 KOS infected in MDCK cells assessed as inhibition of viral replication measured after 24 hrs by plaque reduction assay; assay type: functional, organism-based; details: Human alphaherpesvirus 1, KOS
# [14] = Cytotoxicity against human A549 cells assessed as reduction in cell viability by Alamar blue assay; assay type: toxicity, cell-based
# [15] = Therapeutic index, ratio of CC50 for cytotoxicity against human C8166 cells to EC50 for antiviral activity against HIV-1 infected in C8166 cells; assay type: toxicity, cell-based; details: read-out: Ratio CC50/EC50
# [16] = Cytotoxicity against human C8166 cells assessed as inhibition of cell growth by MTT assay; assay type: toxicity, cell-based
# [17] = test system: Influenza A virus; experiment: Antiviral activity against influenza A virus A/Guangdong/243/72 ([…]) infected in MDCK cells assessed as inhibition of virus-induced cytopathic effect; assay type: functional, organism-based
# [18] = test system: Vero C1008; experiment: Cytotoxicity against African green monkey Vero E6 cells infected with Middle East respiratory syndrome coronavirus assessed as reduction in cell viability at 250 uM by LDH assay relative to control; assay type: toxicity, cell-based; details: chlorocebus sabaeus, vero c1008, 250 µM
# [19] = test system: Human immunodeficiency virus 1; experiment: Antiviral activity against HIV-1 infected in human C8166 cells assessed as inhibition of viral replication; assay type: functional, organism-based; details: Human immunodeficiency virus 1, C8166
# [20] = test system: rhinovirus A1B; experiment: Antiviral activity against HRV1B infected in human HeLa cells assessed as reduction in cytopathic effect by SRB assay; assay type: functional, organism-based; details: Rhinovirus A
# [21] = test system: Influenza A virus; experiment: Antiviral activity against influenza A virus A/PR/8/34 (H1N1) infected in human A549 cells assessed as inhibition of RANTES production incubated for 48 hrs by ELISA; assay type: functional, organism-based; details: A549, 48 h
# [22] = test system: Human immunodeficiency virus 1; experiment: Antiviral activity against HIV-1 infected in human leucocytes assessed as inhibition of viral replication; assay type: functional; details: Human immunodeficiency virus 1, Leucocyte
# [23] = test system: Human immunodeficiency virus 1; experiment: Antiviral activity against HIV-1 infected in human macrophages assessed as inhibition of viral replication; assay type: functional; details: Human immunodeficiency virus 1, Macrophage
# [24] = test system: Human alphaherpesvirus 2; experiment: Antiviral activity against HSV-2 Baylor 186 infected in African green monkey Vero cells incubated for 2 days by plaque reduction assay; assay type: functional, organism-based; details: Human alphaherpesvirus 2, Baylor 186, Vero, 48 h
# [25] = test system: Human alphaherpesvirus 1; experiment: Antiviral activity against HSV-1 KOS infected in African green monkey Vero cells incubated for 2 days by plaque reduction assay; assay type: functional, organism-based; details: Human alphaherpesvirus 1, KOS, 48 h
# [26] = test system: Human alphaherpesvirus 1; experiment: Antiviral activity against HSV-1 7401H infected in African green monkey Vero cells incubated for 2 days by plaque reduction assay; assay type: functional, organism-based; details: Human alphaherpesvirus 1, 7401H
# [27] = test system: Human alphaherpesvirus 2; experiment: Antiviral activity against HSV-2 VR-734 infected in human HeLa cells; assay type: functional, organism-based; details: Human alphaherpesvirus 2, VR-734, HeLa
# [28] = test system: Human alphaherpesvirus 2; experiment: Antiviral activity against HSV-2 VR-734 infected in African green monkey Vero cells assessed as inhibition of viral replication measured after 72 hrs by MTT assay; assay type: functional, organism-based; details: Human alphaherpesvirus 2, VR-734, Vero
# [29] = test system: Human alphaherpesvirus 2; experiment: Antiviral activity against HSV-2 VR-734 infected in human NCI-H1299 cells; assay type: functional, organism-based; details: Human alphaherpesvirus 2, VR-734, NCI-H1299
# [30] = Cytotoxicity against MDCK cells assessed as reduction in cell viability incubated for 72 hrs by MTT assay; assay type: toxicity, cell-based, Canis lupus familiaris; details: dog
# [31] = test system: Influenza A virus; experiment: Antiviral activity against influenza A virus A/PR/8/34 (H1N1) infected in MDCK cells preincubated 2 hrs followed by viral infection and measured after 24 hrs by MTT assay; assay type: functional, organism-based
structure (smiles),measurement,setting,value
Oc1cc(O)cc(/C=C/c2ccc(O)c(O)c2)c1 [PICEATANNOL],selectivity ratio,[1],> 18.7
same,CC50,[2],> 400 µM
same,EC50,[3],21.4 µM
Oc1cc(/C=C/c2cc(O)c(O)c(O)c2)cc(O)c1O,selectivity ratio,[4],12
same,CC50,[5],20.1 µM
same,EC50,[6],0.74 µM
same,selectivity ratio,[7],69
same,EC50,[8],0.29 µM
same,CC50,[9],11.9 µM
same,selectivity ratio,[10],16
same,EC50,[11],1.69 µM
O=C1C=C[C@]23[C@H](C1)Oc1cccc4c1[C@H]2[C@H](c1cc(O)cc2c1[C@@H]4[C@H](c1ccc(O)cc1)O2)[C@@H](c1cc(O)cc2c1[C@@H](c1cc(O)cc(O)c1)[C@H](c1ccc(O)cc1)O2)[C@@H]3c1ccc(O)cc1,IC50,[12],6.8 µM
same,IC50,[13],2.8 µM
Oc1ccc(/C=C/c2cc(O)cc(O)c2)cc1 [RESVERATROL],CC50,[14],52.6 µM
same,selectivity ratio,[15],8.14
same,CC50,[16],35.6 µg/mL
same,IC50,[17],> 22.2 µg/mL
same,CC50,[2],> 300 µM
same,Activity,[18],25%
same,EC50,[19],4.37 µg/mL
same,IC50,[20],29.7 µM
same,EC50,[21],28.4 µM
same,EC50,[3],> 75 µM
CC(=O)CC(=O)Nc1ccc(/C=C/c2ccc(-n3nccc3O)cc2S(=O)(=O)O)c(S(=O)(=O)O)c1,EC90,[22],0.5 µM
same,EC90,[23],0.5 µM
Oc1cc(O)cc(/C=C/c2ccc(O)cc2O)c1 [OXYRESVERATROL],IC50,[24],18.7 µg/mL
same,IC50,[25],24 µg/mL
same,IC50,[26],19.8 µg/mL
Oc1ccc([C@H]2c3c(O)cc(O)cc3[C@@H]3c4c(cc(O)cc4[C@H]4[C@@H](c5ccc(O)cc5)c5c(O)cc(O)cc5[C@H]5c6c(cc(O)cc6[C@H]24)O[C@@H]5c2ccc(O)cc2)O[C@H]3c2ccc(O)cc2)cc1,IC50,[27],3.2 µM
same,IC50,[28],3.2 µM
same,IC50,[29],3.2 µM
O=C(O)c1ccccc1/N=N/c1ccc(O)cc1O,CC50 at 72 h,[30],> 100 µg/mL
same,EC50,[31],7.28 µg/mL
